Test results from ChEMBL document CHEMBL5532716, “UPLC-Q-TOF-MS/MS-Based Targeted Discovery of Chetomin Analogues from Chaetomium cochliodes” (J Nat Prod, 2024).

Columns and labels:
HeLa = experiment: Cytotoxicity against human HeLa cells assessed as inhibition of cell viability by MTT assay; type: functional, cell-based
A549 = experiment: Cytotoxicity against human A549 cells assessed as inhibition of cell viability by MTT assay; type: functional, cell-based

Q: How did the IC50 (HeLa) turn out when `CN1C(=O)[C@]2(Cc3c[nH]c4ccccc34)SSSS[C@@]1(CO)C(=O)N2C` was run?
A: Its IC50 is 1.9 µM.

Q: What about the IC50 (A549) of the same compound?
A: Its IC50 is 2.2 µM.

Q: How did the IC50 (HeLa) turn out when `CNC(=O)[C@@]12C[C@]3(n4cc(C[C@@]56SSSS[C@@](CO)(C(=O)N5C)N(C)C6=O)c5ccccc54)c4ccccc4N[C@@H]3N1C(=O)C(=O)N[C@H]2C` was run?
A: Its IC50 is 1.6 µM.

Q: And the IC50 (A549)?
A: Its IC50 is 1.9 µM.

Q: For `CS[C@@]12Cc3c([nH]c4ccccc34)[C@@](CO)(NC1=O)C(=O)N2`, which IC50 (HeLa) is on record?
A: Its IC50 is 25 µM.

Q: And the IC50 (A549)?
A: Its IC50 is 25 µM.

Q: What does the source list for `CS[C@@]1(CO)C(=O)N/C(=C\c2c[nH]c3ccccc23)C(=O)N1C`?
A: IC50 (HeLa): 30 µM; IC50 (A549): 30 µM

Q: With `CN1C(=O)[C@]2(Cc3cn([C@]45C[C@@]67SS[C@@](CO)(C(=O)N6[C@H]4Nc4ccccc45)N(C)C7=O)c4ccccc34)SS[C@@]1(CO)C(=O)N2C` [CHETOMIN] as the compound, how does the IC50 (HeLa) read?
A: The IC50 was 2.4 µM.

Q: What about the IC50 (A549) of the same compound?
A: The IC50 was 3.5 µM.

Q: For `CS[C@]1(CO)NC(=O)[C@](Cc2c[nH]c3ccccc23)(SC)NC1=O` [CHETOSEMINUDIN C], which IC50 (HeLa) is on record?
A: The IC50 was 33 µM.

Q: What about the IC50 (A549) of the same compound?
A: Its IC50 is 30 µM.
